≈ marks a conversion by molar mass, not a printed value. Read-outs that look alike come from different tables or passages of the source.
Tests used:
[1] = system: BCL2; test: RT-qPCR BCL2 mRNA expression; format: cell-based, human; settings: THP-1, catalposide 44 μg/mL, specioside 40 μg/mL
Method: After treatment, mRNA extraction was performed using the RNeasy Plus Mini Kit (Qiagen, Germantown, MD, USA; Cat No. 74134). The mRNA was quantified with a NanoDrop 2000c (Thermo Fisher Scientific, Waltham, MA, USA). The expression of the MAPK14 (gene encoding p38), BCL2, and BAX genes was evaluated by qRT–PCR and quantified with the 2^−ΔΔCt method in the Applied Biosystems StepOnePlus Real-Time PCR System (Applied Biosystems, Foster City, CA, USA), which uses predesigned TaqMan Gene Expression Assays (codes […], Hs00608023_m1, and Hs00180269_m1, respectively) (Applied Biosystems, Foster City, CA, USA) and the TaqMan® RNA-to-CT TM 1-Step Kit (Applied Biosystems, Foster City, CA, USA, Cat No. 4392653). The reaction mixture was incubated at 48 °C for 15 min and 95 °C for 10 min and then cycled (40 cycles) at 95 °C for 15 s and 60 °C for 1 min. GAPDH was used as an endogenous control.

[2] = system: THP-1 cells; test: MTT cell viability assay, THP-1 cells; format: cell-based, human; settings: for IC50: MTT, n = 3
Method: Jurkat and THP-1 cell lines were purchased from the American Type Culture Collection (ATCC, Rockville, MD, USA); Jurkat is a human lymphocytic cell line representing acute T-cell leukemia, and THP-1 is a monocytic cell line that represents acute myelogenous leukemia (AML). […] Cat Nos. […] The cells were maintained at 37 °C in a humidified atmosphere with 5% CO2. The culture medium was exchanged with fresh medium every 2-3 days. Peripheral blood mononuclear cells (PBMCs) were isolated from normal human venous blood. Further, 10 milliliters of human blood was mixed with 10 mL of RPMI-1640 containing 50 μL of heparin and gradually poured over 1 mL of HISTOPAQUE®-1119 (Sigma). The plasma was removed by centrifugation at 3000 rpm for 30 min. The peripheral blood mononuclear cell-containing layer was collected with a pipette and diluted in 4 mL of PBS. PBMCs were harvested by centrifugation at 1500 rpm for 10 min at room temperature, resuspended in RPMI-1640 with 10% FBS, and incubated at 37 °C in 5% CO2 humidified air. […] Doxorubicin was used as a reference standard drug (positive control). After treatment, the medium was discarded; 200 μL of RPMI 1640 medium without phenol red containing 0.5 mg/mL MTT (Sigma Chemical Co., Saint Louis, MO, USA; Cat. No. […] The plates were incubated for four hours at 37 °C with 5% CO2 in a humidified atmosphere. The medium was discarded, and 100 μL of DMSO was added to solubilize the formazan crystals. The absorbance was measured with an ELISA microplate reader at 492 nm (ELx800; BioTek Instruments Inc., Winooski, VT, USA). The percentage of viable cells was calculated on the basis of the nontreated control (taken as 100%). […] Three independent assays were performed, each in triplicate. The selectivity index corresponds to the ratio of the IC50 value calculated for the activity of synthesized compounds on a regular cell line (PBMCs) to that of the IC50 calculated for cancer cell lines (Jurkat and THP-1). Values greater than two were optimal for an efficient selectivity index.

[3] = system: Hep-G2 cells; parameters: method as in PMID 21678519; settings: cited from earlier work
[4] = Homo sapiens, THP-1, 12 h, read-out: IC50
[5] = Homo sapiens, THP-1, 24 h, read-out: IC50
[6] = Homo sapiens, THP-1, 48 h, read-out: IC50

SMILES	expression of Bcl-2 mRNA with APC [1]	IC50 [2, 4] [µg/mL]	IC50 [2, 5] [µg/mL]	IC50 [2, 6] [µg/mL]	SI (selectivity index) ([2]; IC50 PBMC / IC50 THP-1, 12 h)	SI (selectivity index) ([2]; IC50 PBMC / IC50 THP-1, 24 h)	SI (selectivity index) ([2]; IC50 PBMC / IC50 THP-1, 48 h)	IC50 ([2]; THP-1, 24 h) [µg/mL]	effect in Hep-G2 cells [3]
O=C(O[C@H]1[C@@H]2C=CO[C@@H](O[C@@H]3O[C@H](CO)[C@@H](O)[C@H](O)[C@H]3O)[C@@H]2[C@@]2(CO)O[C@@H]12)c1ccc(O)cc1 [Catalposide, catalposide]	decreased	122 ± 3.3 (≈ 252 µM)	43.9 (≈ 91 µM)	30.2 ± 1.67 (≈ 62.5 µM)	1.03	1.99	1.44	43.86 ± 2.2 (≈ 90.9 µM)	only had cytotoxic and cytostatic effects
O=C(/C=C/c1ccc(O)cc1)O[C@H]1[C@@H]2C=CO[C@@H](O[C@@H]3O[C@H](CO)[C@@H](O)[C@H](O)[C@H]3O)[C@@H]2[C@@]2(CO)O[C@@H]12 [Specioside]	decreased	47.2 ± 2.3 (≈ 92.9 µM)	40.3 (≈ 79.3 µM)	26.3 ± 6.8 (≈ 51.8 µM)	3.49	1.75	2.06	40.32 ± 1.3 (≈ 79.3 µM)	
